From patent publication US11865125B2, “APKC inhibitors and methods of treating a neurodegenerative disease or disorder” (UNIVERSITY OF SOUTH FLORIDA, priority 2016, dated 2024)
pIC50: −log10 of the molar value. “Also recorded” adds a separate entry of the source.

How the values were obtained:
β-secretase (BACE1) = assay: brain β-secretase activity (BACE1) in mice; format: in vivo, mouse
From the text: Mouse Studies. Brain samples were obtained from normal and insulin-resistant mice and monkeys used previously, and includes mice originally used in studies of insulin signaling and resistance in liver: (a) 4-6 month old C57Bl/6 mice used in studies of high-fat-feeding [USF Vivarium] [6]; 4-6 month-old male C57Bl/6 ob/ob and lean ob+ mice (Jackson Labs, Bar Harbor, Maine); and (c) 10-12 month-old C57Bl/6 Het-MλKO mice [USF Vivarium] [8]. Males and females were comparably present in experimental groups, and sex didn't appreciably alter combined findings. Hepatic alterations, clinical characteristics and ameliorating effects of liver-selective aPKC inhibitors were reported previously. […] Where indicated, Het-MλKO were injected subcutaneously (SC) once daily for 8 days with saline or 1H-imidazole-4-carboxamide,5-amino]-(2,3-dihydroxy-4-[(phosphono-oxy)methyl]cyclopentane-[1R-(1a,2b,3b,4a)] (ICAPP) 0.4 mg/kg body weight) in saline, to inhibit hepatic aPKC, and thus diminish aPKC-dependent expression of hepatic gluconeogenic and lipogenic enzymes, and thereby reduce serum insulin levels to near-normal. Where indicated normal mice were given a single SC injection of saline or saline containing 1.5 mg/kg ICAPP to follow time-related alterations in brain signaling factors. Where indicated, mice were treated intraperitoneally (IP) with insulin (1 U/kg body weight) or vehicle 15-min before euthanization by administration of Xylazine/Ketamine, followed by whole body perfusion with phosphate-buffered saline and rapid removal of brain and other tissues.
Tissue Preparations. As described, mouse brains were hemisected sagittally, and one-half was frozen in liquid N2, stored at −80° C., and samples thereof were homogenized in buffer containing 0.25M sucrose, 20 mM Tris/HCl (pH, 7.5), 2 mmol/l EGTA, 2 mM EDTA, 1 mM phenlysulfonoylfluoride (PMSF), 20 μg/ml leupeptin, 10 μg/ml aprotinin, 2 mM Na4P2O7, 2 mM Na3VO4, 2 mM NaF, and 1 μM microcystin, and then supplemented with 1% TritonX-100, 0.6% Nonidet and 150 mM NaCl.
β-Secretase Activity (BACE1; beta-site APP-cleaving enzyme-1). β-Secretase was measured was measured using a kit from Thermo-Fisher.

recombinant PKC-ι = target: T1, recombinant PKC-ι (Homo sapiens, UniProt P41743); conditions: cited from earlier work
T1 sequence (P41743 1-596): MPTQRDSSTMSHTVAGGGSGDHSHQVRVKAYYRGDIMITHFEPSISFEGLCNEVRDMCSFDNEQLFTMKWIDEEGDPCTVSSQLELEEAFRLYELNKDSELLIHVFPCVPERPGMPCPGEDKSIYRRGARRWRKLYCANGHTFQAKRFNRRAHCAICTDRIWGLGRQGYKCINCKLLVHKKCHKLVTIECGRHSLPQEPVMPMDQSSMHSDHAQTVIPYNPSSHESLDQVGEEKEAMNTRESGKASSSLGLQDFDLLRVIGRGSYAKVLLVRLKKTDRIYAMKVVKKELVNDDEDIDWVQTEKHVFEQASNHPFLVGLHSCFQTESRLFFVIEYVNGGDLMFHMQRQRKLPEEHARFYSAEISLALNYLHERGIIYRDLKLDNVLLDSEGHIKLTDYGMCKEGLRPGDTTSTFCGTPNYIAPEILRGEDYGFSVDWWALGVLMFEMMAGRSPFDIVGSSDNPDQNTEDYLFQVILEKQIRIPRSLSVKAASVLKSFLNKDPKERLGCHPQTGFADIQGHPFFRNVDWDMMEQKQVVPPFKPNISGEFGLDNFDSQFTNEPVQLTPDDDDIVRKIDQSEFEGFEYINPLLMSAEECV

Which “resting/basal brain β-secretase activity” value (β-secretase (BACE1); Het-MλKO mice, ICAPP 0.4 mg/kg s.c. once daily for 8 days) does the source give for NC(=O)c1ncn([C@@H]2C[C@H](COP(=O)(O)O)[C@@H](O)[C@H]2O)c1N [ICAPP] here?
The value was “reduced resting/basal β-secretase activity to near-normal levels”.

What about the “acute insulin-stimulated increases in brain β-secretase activity” value (β-secretase (BACE1); Het-MλKO mice, ICAPP 0.4 mg/kg s.c. once daily for 8 days, insulin 1 U/kg i.p. 15 min) of the same molecule?
Its value is “fully blocked”.

And the “insulin-dependent brain β-secretase activity” value (β-secretase (BACE1); normal mice, single s.c. dose of ICAPP 1.5 mg/kg, insulin 1 U/kg i.p. 15 min before killing)?
Its value is “time-related, well-correlated decreases; also recorded: blocked acute effects of insulin”.

What about the “inhibition of recombinant PKC-ι” value (recombinant PKC-ι) of the same molecule?
Its value is “preferentially inhibit recombinant PKC-ι”.

And the pIC50 (recombinant PKC-ι; previously seen, stated as similar, read-out: IC50, inhibition of recombinant PKC-λ/ι)?
The pIC50 was 8.00 to 9.00.
